Laboratory results published in US8710233B2 (Gruenenthal GmbH, priority 2005, dated 2014).
Like-named read-outs stand apart in the source and are kept apart here.

Assays:
[1] = test system: formaldehyde induced nociceptive behaviour; test: Formaldehyde test in mice, second (late) phase; format: in vivo, mouse; settings: mouse; for inhibition in vivo at 1 mg/kg: 1 mg/kg body weight po
VR1/TRPV1 receptor = VR1/TRPV1 receptor (Homo sapiens, UniProt Q8NER1); test: IC50 (human) after pH stimulus; format: cell-based
[2] = biological target: T1, vanilloid receptor 1 (VR1/TRPV1) of the rat species (Rattus norvegicus, UniProt O35433); test: FLIPR Ca2+ influx assay on rat dorsal root ganglia cells (pharmacological method I); format: cell-based
T1 construct: The spinal column is removed from decapitated rats; from tissue; host or cells: primary cells dissociated from rat dorsal root ganglia
How it was run: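 Primary rat dorsal root ganglion cells loaded with 2 μM Fluo-4, Ca2+ influx read on FLIPR as peak fluorescence. Triplicates, at least 3 independent experiments.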

vanilloid receptor (VR1) = biological target: T2, vanilloid receptor (VR1) (Homo sapiens, UniProt Q8NER1); test: FLIPR Ca2+ influx assay on CHO K1 cells transfected with the VR1 gene (pharmacological method II); format: cell-based
T2 construct: expressed in transfected cells; host or cells: CHO K1 cells (ECACC), stably transfected

[3] = test system: capsaicin induced hypothermie; test: Hypothermie assay in the mouse (capsaicin induced hypothermie); format: in vivo; settings: mouse, read-out: inhibition hypothermie (n = 5); for inhibition in vivo at 0.3 mg/kg: 0.3 mg/kg body weight po
Description: V. Hypothermie Assay an der Maus
Male NMRI mice (weight 25-35 gram, supplier IFFA CREDO, Bruxelles, Belgium) are used in the hypothermie assay. The animals are kept under standardized conditions: light/darkness interval (6:00 to 18:00 light; 18:00 to 6:00 Uhr darkness), room temperature 19-22° C., relative humidity 35-70%, 15 times per hour change of compartment air, airflow <0.2 m/sec. The animals were fed on a standardized diet (ssniff diet, ssniff Spezialdiäten GmbH, Soest, Germany) and tap water. Water and diet were detracted during the experiment. All animals were used once in the experiment. The animals were allowed to adapt to the experimental conditions for at least 5 days.
The acute application of capsaicin (VR-1 agonist) leads to a decrease of the core body temperature in rat and mice via stimulation of heat sensors. Only compounds which act as specific VR-1-receptor antagonists can antagonize the capsaicin induced hypothermie. In contrast, morphine induced hypothermie is not antagonized by VR-1 antagonists. Thus, this experiment is suitable for the determination of compounds that act as VR1-antagonists via their effect on the core body temperature.
For the determination of the core body temperature a digital thermometer was used (Thermalert TH-5, physitemp, Clifton N.J., USA). The measuring head was inserted into the rectum.
The individual basis value is determined by measuring the body temperature twice in an interval of about half an hour. […] […] The test compound is given 10 min (i.v.) or 15 min (p.o.), respectively, before application of capsaicin. The body temperature is determined 7.5/15 and 30 min after application of capsaicin (i.v.+i.p.) or 15/30/60/90/120 min after application of capsaicin (p.o.+i.p.), respectively. In addition, another group of mice is only given the test compound or a vehicle control.
The measuring points are given as average values±S.E.M. of the absolute values. The antagonistic effect is given in percent of inhibition of capsaicin induced hypothermie.

[4] = Table 2, displacement of capsaicin (100 nM), Cheng-Prusoff, read-out: Ki (rat)
[5] = Table 2, displacement of capsaicin (100 nM), Cheng-Prusoff, read-out: Ki (human)
[6] = read-out: inhibition formaldehyde test (n = 10)
[7] = 0.3 mg/kg body weight po, read-out: inhibition formaldehyde test (n = 10)
[8] = table 4, capsaicin, read-out: Ki (rat) Cap.
[9] = table 4, capsaicin, read-out: Ki (human) Cap.

T1 sequence (O35433 whole entry): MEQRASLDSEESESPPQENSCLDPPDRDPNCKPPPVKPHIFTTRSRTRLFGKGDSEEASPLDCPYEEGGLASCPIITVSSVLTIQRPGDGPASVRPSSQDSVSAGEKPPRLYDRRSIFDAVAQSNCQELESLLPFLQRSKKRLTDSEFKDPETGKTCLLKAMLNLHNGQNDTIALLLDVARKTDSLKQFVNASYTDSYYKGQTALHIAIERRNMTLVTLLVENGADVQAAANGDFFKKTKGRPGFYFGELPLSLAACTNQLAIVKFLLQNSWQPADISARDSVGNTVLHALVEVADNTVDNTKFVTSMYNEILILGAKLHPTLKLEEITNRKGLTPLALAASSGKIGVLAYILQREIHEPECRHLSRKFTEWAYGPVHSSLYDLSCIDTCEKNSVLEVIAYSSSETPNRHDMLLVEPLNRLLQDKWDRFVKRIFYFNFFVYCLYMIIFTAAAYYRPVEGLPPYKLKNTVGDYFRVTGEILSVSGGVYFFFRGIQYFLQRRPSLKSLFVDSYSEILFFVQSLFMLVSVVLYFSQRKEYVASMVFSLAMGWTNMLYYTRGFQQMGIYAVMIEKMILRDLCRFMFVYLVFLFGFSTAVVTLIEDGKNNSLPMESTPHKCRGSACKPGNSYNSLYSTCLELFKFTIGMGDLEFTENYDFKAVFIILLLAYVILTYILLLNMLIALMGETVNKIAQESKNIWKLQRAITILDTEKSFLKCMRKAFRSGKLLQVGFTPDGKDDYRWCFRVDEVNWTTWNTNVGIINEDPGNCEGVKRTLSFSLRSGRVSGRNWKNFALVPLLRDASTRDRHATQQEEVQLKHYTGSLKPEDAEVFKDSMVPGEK
T2 sequence (Q8NER1 whole entry): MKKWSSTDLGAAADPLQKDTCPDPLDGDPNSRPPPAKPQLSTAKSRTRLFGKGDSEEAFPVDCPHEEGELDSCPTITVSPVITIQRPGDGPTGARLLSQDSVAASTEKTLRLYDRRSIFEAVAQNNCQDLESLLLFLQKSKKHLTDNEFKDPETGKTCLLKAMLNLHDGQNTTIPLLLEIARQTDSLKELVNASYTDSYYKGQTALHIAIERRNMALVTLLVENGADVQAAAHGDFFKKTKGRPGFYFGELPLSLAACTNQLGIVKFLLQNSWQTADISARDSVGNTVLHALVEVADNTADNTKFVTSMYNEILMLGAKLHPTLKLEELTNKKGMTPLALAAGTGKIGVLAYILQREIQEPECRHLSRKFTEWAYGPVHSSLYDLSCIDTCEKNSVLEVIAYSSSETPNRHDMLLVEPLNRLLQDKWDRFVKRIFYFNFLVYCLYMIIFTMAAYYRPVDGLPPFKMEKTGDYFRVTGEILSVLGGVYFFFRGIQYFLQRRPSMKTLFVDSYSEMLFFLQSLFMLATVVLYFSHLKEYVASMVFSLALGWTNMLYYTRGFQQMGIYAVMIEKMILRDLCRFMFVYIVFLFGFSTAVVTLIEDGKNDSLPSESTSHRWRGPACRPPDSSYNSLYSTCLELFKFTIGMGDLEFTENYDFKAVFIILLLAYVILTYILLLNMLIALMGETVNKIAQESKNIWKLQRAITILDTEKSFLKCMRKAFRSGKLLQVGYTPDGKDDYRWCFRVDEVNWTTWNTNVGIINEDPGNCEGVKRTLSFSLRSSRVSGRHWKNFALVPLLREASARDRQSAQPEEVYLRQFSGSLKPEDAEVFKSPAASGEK
Sequence of VR1/TRPV1 receptor (Q8NER1 whole entry): as above

CC(C(=O)NCc1ccc(C(F)(F)Cl)nc1N1CCCCC1)c1ccc(NS(C)(=O)=O)c(F)c1 (stereo not drawn) [Example 71, N-((6-(chlorodiflouromethyl)-2-(piperidin-1-yl)pyridin-3-yl)methyl)-2-(3-fluoro-(4-methylsulfonamido)phenyl)propanamide]
inhibition formaldehyde test (n = 10) ([1]; 0.3 mg/kg body weight po): 0.3 po 0% | IC50 (VR1/TRPV1 receptor; Table 2): 22.4 nM | Ki [2, 4]: 0.8 nM | Ki (vanilloid receptor (VR1); [5]): 1.3 nM

CC(C(=S)NCc1ccc(C(F)(F)F)nc1N1CCCC1)c1ccc(NS(C)(=O)=O)c(F)c1 (stereo not drawn) [Compound 129]
inhibition in vivo at 1 mg/kg [1, 6]: 3%

CC(C(=O)NCc1ccc(C(F)(F)F)nc1-c1cccs1)c1ccc(NS(C)(=O)=O)c(F)c1 (stereo not drawn) [Compound 88]
inhibition in vivo at 1 mg/kg [1, 6]: 16%

CC(C(=O)NCc1ccc(C(F)(F)F)nc1-c1ccc(C(C)(C)C)cc1)c1ccc(NS(C)(=O)=O)c(F)c1 (stereo not drawn) [Compound 117]
inhibition in vivo at 1 mg/kg [1, 6]: 41%

CCCCN(C)c1nc(C(F)(F)F)ccc1CNC(=O)C(C)c1ccc(NS(C)(=O)=O)c(F)c1 (stereo not drawn) [Compound 167]
inhibition in vivo at 0.3 mg/kg [1, 7]: 56%

CC(C(=O)NCc1ccc(C(F)(F)F)cc1N1CCCC1)c1ccc(NS(C)(=O)=O)c(F)c1 (stereo not drawn) [Compound 34]
inhibition in vivo at 0.3 mg/kg [1, 7]: 51%

CC(C(=O)NCc1ccc(C(F)(F)F)nc1N1CCCC1)c1ccc(NS(C)(=O)=O)c(Br)c1 (stereo not drawn) [Compound 103]
inhibition in vivo at 1 mg/kg [1, 6]: 50%

CCCCOc1cc(C(C)(C)C)ccc1CNC(=O)C(C)c1ccc(NS(C)(=O)=O)c(F)c1 (stereo not drawn) [Compound 108]
inhibition in vivo at 1 mg/kg [1, 6]: 24%

CCCCOC1CCN(c2nc(C(F)(F)F)ccc2CNC(=O)C(C)c2ccc(NS(C)(=O)=O)c(F)c2)CC1 (stereo not drawn) [Compound 160]
inhibition in vivo at 1 mg/kg [1, 6]: 14%

CC(C(=O)NCc1ccc(C(F)(F)F)nc1SC1CCCCC1)c1ccc(NS(C)(=O)=O)c(F)c1 (stereo not drawn) [Compound 126]
inhibition in vivo at 0.3 mg/kg [1, 7]: 69%

CC(C(=O)NCc1ccc(C(F)(F)F)nc1-c1ccccc1F)c1ccc(NS(C)(=O)=O)c(F)c1 (stereo not drawn) [Example 150, 2-(3-fluoro-4-methylsulfonamido-phenyl)-N-[2-(2-fluoro-phenyl)-6-trifluoromethyl-pyridin-3-ylmethyl]-propionamide]
inhibition in vivo at 0.3 mg/kg [1, 7]: 17% | IC50 (VR1/TRPV1 receptor; table 4): 1320 nM | Ki [2, 8]: 22.4 nM | Ki (vanilloid receptor (VR1); [9]): 63.3 nM

COC1CCN(c2nc(C(F)(F)F)ccc2CNC(=O)C(C)c2ccc(NS(C)(=O)=O)c(F)c2)CC1 (stereo not drawn) [Compound 159]
inhibition in vivo at 1 mg/kg [1, 6]: 14%

CC(C(=O)NCc1ccc(C(F)(F)F)nc1OCCC(C)(C)C)c1ccc(NS(C)(=O)=O)c(F)c1 (stereo not drawn) [Compound 125]
inhibition in vivo at 1 mg/kg [1, 6]: 19% | inhibition in vivo at 0.3 mg/kg [3]: 37% | inhibition in vivo at 1 mg/kg ([3]; 1 mg/kg body weight po): 32% | inhibition in vivo at 3 mg/kg ([3]; 3 mg/kg body weight po): 65%

CC(C(=O)NCc1ccc(C(F)(F)F)nc1-c1cccc(F)c1)c1ccc(NS(C)(=O)=O)c(F)c1 (stereo not drawn) [Compound 148]
inhibition in vivo at 1 mg/kg [1, 6]: 46%

Cc1cc(C(C)C(=O)NCc2ccc(C(F)(F)F)nc2N2CCCCC2)ccc1NS(C)(=O)=O (stereo not drawn) [Compound 127]
inhibition in vivo at 1 mg/kg [1, 6]: 25%

CC(C(=O)NCc1ccc(C(F)(F)Cl)nc1OC1CCCC1)c1ccc(NS(C)(=O)=O)c(F)c1 (stereo not drawn) [Compound 166]
inhibition in vivo at 1 mg/kg [1, 6]: 72%

CC(C(=O)NCc1ccc(C(F)(F)F)nc1OCCc1ccccc1)c1ccc(NS(C)(=O)=O)c(F)c1 (stereo not drawn) [Compound 178]
inhibition in vivo at 1 mg/kg [1, 6]: 28%

CC(C(=O)NCc1ccc(C(F)(F)Cl)nc1OCc1ccccn1)c1ccc(NS(C)(=O)=O)c(F)c1 (stereo not drawn) [Compound 182]
inhibition in vivo at 1 mg/kg [1, 6]: 8%

CC(C(=O)NCc1ccc(C(F)(F)F)nc1NC1CCCCC1)c1ccc(NS(C)(=O)=O)c(F)c1 (stereo not drawn) [Compound 90]
inhibition in vivo at 1 mg/kg [1, 6]: 37%

CC(C(=O)NCc1ccc(C(F)(F)F)nc1OC1CCCCC1)c1ccc(NS(C)(=O)=O)c(F)c1 (stereo not drawn) [Example 76]
inhibition in vivo at 0.3 mg/kg [1, 7]: 12% | IC50 (VR1/TRPV1 receptor; Table 2): 43.4 nM | Ki ([2]; Ki (rat), Table 2, displacement of capsaicin (100 nM), Cheng-Prusoff): 1.5 nM | Ki (vanilloid receptor (VR1); [5]): 1.3 nM

CC(C(=O)NCc1ccc(C(F)(F)F)nc1N1CCC(N2CCCC2)CC1)c1ccc(NS(C)(=O)=O)c(F)c1 (stereo not drawn) [Compound 165]
inhibition in vivo at 1 mg/kg [1, 6]: 15% | inhibition at 10 µM ([2]; @ 10 μM, read-out: inhibition in percent, Ki (rat) Cap.): 4% | inhibition at 10 µM (vanilloid receptor (VR1); CHO-K1, @ 10 μM, read-out: inhibition in percent, Ki (human) Cap.): 0.5%

CCC1CCC(Oc2nc(C(F)(F)F)ccc2CNC(=O)C(C)c2ccc(NS(C)(=O)=O)c(F)c2)CC1 (stereo not drawn) [Compound 171]
inhibition in vivo at 1 mg/kg [1, 6]: 46%

CC(C(=S)NCc1ccc(C(F)(F)F)nc1-c1ccc(F)cc1)c1ccc(NS(C)(=O)=O)c(F)c1 (stereo not drawn) [Compound 130]
inhibition in vivo at 1 mg/kg [1, 6]: 55%

CC(C(=O)NCc1ccc(C(F)(F)F)cc1N1CCCCCC1)c1ccc(NS(C)(=O)=O)c(F)c1 (stereo not drawn) [Compound 174]
inhibition in vivo at 1 mg/kg [1, 6]: 49%

CC(C(=O)NCc1ccc(C(F)(F)F)cc1N1CCCC1)c1ccc(NS(C)(=O)=O)c(F)c1 (stereo not drawn) [Example 34, 2-(3-fluoro-4-(methylsulfonamido)phenyl)-N-(2-(pyrrolidin-1-yl)-4-(trifluoromethyl)benzyl)propanamide]
inhibition in vivo at 0.1 mg/kg ([1]; 0.1 mg/kg body weight po, read-out: inhibition formaldehyde test (n = 10)): 6% | IC50 (VR1/TRPV1 receptor; Table 2): 121 nM | Ki [2, 4]: 2.5 nM | Ki (vanilloid receptor (VR1); [5]): 2.3 nM

CCCCOc1nc(C(F)(F)Cl)ccc1CNC(=O)C(C)c1ccc(NS(C)(=O)=O)c(F)c1 (stereo not drawn) [Example 140, N-[2-butoxy-6-(chlor-difluor-methyl)-pyridin-3-ylmethyl]-2-(3-fluoro-4-methylsulfonamido-phenyl)-propionamide]
inhibition formaldehyde test (n = 10) ([1]; 0.1 mg/kg body weight po): 0.1 po 56% | IC50 (VR1/TRPV1 receptor; table 4): 9.2 nM | Ki [2, 8]: 0.4 nM | Ki (vanilloid receptor (VR1); [9]): 0.7 nM

CC(C(=O)NCc1ccc(C(F)(F)F)nc1OCc1ccncc1)c1ccc(NS(C)(=O)=O)c(F)c1 (stereo not drawn) [Compound 177]
inhibition in vivo at 1 mg/kg [1, 6]: 24% | inhibition at 0.1 µM ([2]; read-out: inhibition in percent, Ki (rat) Cap.): 9%

CC(C(=O)NCc1ccc(C(F)(F)F)nc1N1CCN(c2ccc(F)cc2)CC1)c1ccc(NS(C)(=O)=O)c(F)c1 (stereo not drawn) [Compound 179]
inhibition in vivo at 1 mg/kg [1, 6]: 22%

CC(C(=O)NCc1ccc(C(F)(F)F)nc1OCC1CC1)c1ccc(NS(C)(=O)=O)c(F)c1 (stereo not drawn) [Example 100, N-(2-cyclopropylmethoxy-6-trifluoromethyl-pyridin-3-ylmethyl)-2-(3-fluoro-4-methylsulfonamido-phenyl)-propionamide]
IC50 (VR1/TRPV1 receptor; table 4): 115 nM | Ki ([2]; Ki (rat) Cap., table 4, capsaicin): 1.2 nM | inhibition in vivo at 0.3 mg/kg [3]: 26% | Ki (vanilloid receptor (VR1); [9]): 1.1 nM

CC(C(=O)NCc1ccc(C(F)(F)F)nc1Nc1ccccc1)c1ccc(NS(C)(=O)=O)c(F)c1 (stereo not drawn) [Example 110, 2-(3-fluoro-4-methylsulfonamido-phenyl)-N-(2-phenylamino-6-trifluoromethyl-pyridin-3-ylmethyl)-propionamide]
IC50 (VR1/TRPV1 receptor; table 4): 1400 nM | Ki [2, 8]: 63.1 nM | inhibition in vivo at 0.3 mg/kg [3]: 13% | Ki (vanilloid receptor (VR1); [9]): 59.6 nM
